In PMC11904707, “Cyclization of Two Antimicrobial Peptides Improves Their Activity” (ACS Omega, 2025):
In brackets after ≈: the same amount, converted by molar mass. Where two headings read alike, the source gives them in different places. Peptide text beside a SMILES is read from it.

Tests used:
[1] = test system: Pseudomonas aerginosa (PA231, PA235, PA239, PA249); experiment: MIC growth inhibition assay, Pseudomonas aeruginosa clinical isolates; type: cell-based; conditions: average of four strains, MHB2, 18 h, 37 °C, A570 growth curves
Protocol: (§1) Bacterial clinical isolates used for initial screening were anonymously provided by the clinical microbiology laboratory of the University of Pittsburgh Medical Center (UPMC). Bacteria were stored at −80 °C and typically retrieved by obtaining single colonies on agar plates prior to subsequent liquid broth culture. Suspensions of test bacteria were prepared from the log phase of growth by diluting overnight cultures at 1:100 with fresh cation-adjusted Mueller–Hinton Broth (MHB2) and incubating for an additional 3–4 h. Bacteria were spun at 3000 g for 10 min. The pellet was resuspended in Test Condition Media to determine bacterial turbidity using a Den-1B densitometer (Grant Instruments, Beaver Falls, PA) at 0.5 McFarland units corresponding to 10^8 CFU/mL.
(§2) To examine antibacterial activity, we used minor modifications of a standard growth inhibition assay endorsed by the Clinical and Laboratory Standards Institute (CLSI), as previously described.[13] Bacteria were incubated with each of the indicated peptides in MHB2. The bacterial cells were kept in an incubator for 18 h at 37 °C, which is linked to a robotic system that feeds a plate reader every hour with one of 8 × 96-well plates. The 96-well plates are standard flat-bottom microliter plates purchased from Thermo Fisher (Waltham, MA). This setup allows the collection of growth kinetic data at A 570 (absorbance at 570 nm) to examine growth inhibition in real-time (BioTek Instruments, Winooski, VT). […] The assays are typically repeated a second time. If the MIC differs from the first assay, a third experimental trial is performed to confirm the MIC.

[2] = test system: Acinetobacter baumannii (AB78, AB83, AB273, AB275); experiment: microbe, parasite or virus in culture; type: cell-based
Protocol: as §1, §2

[3] = test system: Escherichia coli (EC541, EC543, EC546, EC549); experiment: microbe, parasite or virus in culture; type: cell-based
Protocol: as §1, §2

[4] = test system: Klebsiella pneumoniae (KP106, KP506, KP542, KP550); experiment: microbe, parasite or virus in culture; type: cell-based
Protocol: as §1, §2

[5] = test system: Staphylococcus aureus (SA703, SA722, SA729); experiment: microbe, parasite or virus in culture; type: cell-based
Protocol: as §1, §2

[6] = test system: Enterobacter (EA62, EC544, EC547, EA1042); experiment: MIC growth inhibition assay, Enterobacter clinical isolates; type: cell-based; conditions: average of four strains, MHB2, 18 h, 37 °C, A570 growth curves, read-out: MIC G(−) Entbac
Protocol: as §1, §2

[7] = test system: G(−) bacteria (five species); experiment: MIC growth inhibition assay, average over G(−) species; type: cell-based; conditions: average of the average MICs of five G(−) species, ± spread
Protocol: as §1, §2

[8] = test system: Staphylococcus hemolyticus 730; experiment: microbe, parasite or virus in culture; type: cell-based; conditions: for MIC after 1-Hr AB incubation / MIC after 1-Hr NE digestion / MIC after 4-Hr AB incubation / MIC after 4-Hr NE digestion: pH 8; for MIC: then MIC vs Staphylococcus hemolyticus 730
Protocol: One motivation in designing linear or cyclic AMPs is to prevent proteolytic degradation that can occur with helical peptides. […] Linezolid, a conventional antibiotic was included for comparison.
as §2
The neutrophil elastase was dissolved in 200 mmol/L Tris buffer, pH 8.8, and used at a molar ratio of 1:50 with the peptide in 200 mM ammonium bicarbonate pH 8.0 for 1 or 4 h. The control experiment incubated the peptides alone in 200 mmol/L ammonium bicarbonate for 1 or 4 h. Upon completion of the incubations, the peptides were serially diluted to test MIC. 50% (v/v) MHB2 was added to the plates. MIC was determined as described above.

[9] = test system: human red blood cells (RBCs); conditions: cited from earlier work
Description: Table 2 Antibacterial Activity and Toxicity of CE-03, LE-53, CE-05 and LE-55 Peptides ^a | column: % toxicity / RBC || The secondary structure of AMPs as they encounter membranes may correlate with their toxicity; it has long been thought that helical peptides are more toxic to eukaryotic cells than nonhelical peptides. Our group has found a positive correlation between helicity and toxicity for WLBU2,[18] the E2-peptides,[28] and SPLUNC1-derived antimicrobial peptides.[34] We have also seen the converse, that nonhelical peptides are nontoxic,[18],[26] supporting the positive correlation between helicity and toxicity. Several literature studies have also found a correlation between α-helicity and toxicity to e ...

[10] = test system: Enterococci (EF500, EF678, EF679, EF787); experiment: organism not typed; type: cell-based; conditions: read-out: MIC G(+) Entcoc
Protocol: as §1, §2

[11] = test system: G(+) bacteria (two species); experiment: MIC growth inhibition assay, average over G(+) species; type: cell-based; conditions: average of the average MICs of two G(+) species, ± spread
Protocol: as §1, §2

[12] = EC541, EC543, EC546, EC549, 18 h
[13] = KP106, KP506, KP542, KP550, 18 h
[14] = average of four strains, MHB2, 18 h, 37 °C, A570 growth curves

Compound: CC(C)[C@@H]1NC(=O)[C@H](Cc2c[nH]c3ccccc23)NC(=O)[C@H](Cc2c[nH]c3ccccc23)NC(=O)[C@H](Cc2c[nH]c3ccccc23)NC(=O)[C@H](Cc2c[nH]c3ccccc23)NC(=O)[C@H](CCCNC(=N)N)NC(=O)[C@H](CCCNC(=N)N)NC(=O)[C@H](CCCNC(=N)N)NC(=O)[C@H](CCCNC(=N)N)NC(=O)[C@H](CCCNC(=N)N)NC(=O)[C@H](CCCNC(=N)N)NC(=O)[C@H](CCCNC(=N)N)NC(=O)[C@H](CCCNC(=N)N)NC(=O)[C@H](C(C)C)NC(=O)[C@H](C(C)C)NC(=O)[C@H](C(C)C)NC1=O [CE-05] (cyclo(RRRRRRRRWWWWVVVV))
- MIC [1]: 6.1 µM (≈ 14.6 µg/mL)
- MIC ([2]; AB78, AB83, AB273, AB275, 18 h): 1.1 µM (≈ 2.63 µg/mL)
- MIC [3, 12]: 2.5 µM (≈ 5.98 µg/mL)
- MIC [4, 13]: 6.7 µM (≈ 16 µg/mL)
- MIC ([5]; SA703, SA722, SA729, 18 h): 1.0 µM (≈ 2.39 µg/mL)
- MIC [6]: 3.2 µM (≈ 7.65 µg/mL)
- MIC G(−) average [7]: 3.9 ± 1.1 µM (≈ 9.32 µg/mL)
- MIC after 1-Hr AB incubation [8]: 6.0 ± 2.8 µM (≈ 14.3 µg/mL)
- MIC after 1-Hr NE digestion [8]: 3.0 ± 1.4 µM (≈ 7.17 µg/mL)
- MIC after 4-Hr AB incubation [8]: 4.0 ± 0 µM (≈ 9.56 µg/mL)
- MIC after 4-Hr NE digestion [8]: 3.0 ± 1.4 µM (≈ 7.17 µg/mL)

Compound: CC(C)[C@H](NC(=O)[C@@H](NC(=O)[C@H](Cc1c[nH]c2ccccc12)NC(=O)[C@H](Cc1c[nH]c2ccccc12)NC(=O)[C@H](Cc1c[nH]c2ccccc12)NC(=O)[C@H](Cc1c[nH]c2ccccc12)NC(=O)[C@H](CCCNC(=N)N)NC(=O)[C@H](CCCNC(=N)N)NC(=O)[C@H](CCCNC(=N)N)NC(=O)[C@H](CCCNC(=N)N)NC(=O)[C@H](CCCNC(=N)N)NC(=O)[C@@H](N)CCCNC(=N)N)C(C)C)C(=O)O [LE-53] (H-RRRRRRWWWWVV-OH)
- MIC after 1-Hr AB incubation [8]: 2.0 ± 0 µM (≈ 3.8 µg/mL)
- MIC after 1-Hr NE digestion [8]: 2.0 ± 0 µM (≈ 3.8 µg/mL)
- MIC after 4-Hr AB incubation [8]: 3.0 ± 1.4 µM (≈ 5.69 µg/mL)
- MIC after 4-Hr NE digestion [8]: 1.5 ± 0.7 µM (≈ 2.85 µg/mL)
- toxicity (in words) [9]: nontoxic

Compound: CC(C)[C@H](NC(=O)[C@@H](NC(=O)[C@@H](NC(=O)[C@@H](NC(=O)[C@H](Cc1c[nH]c2ccccc12)NC(=O)[C@H](Cc1c[nH]c2ccccc12)NC(=O)[C@H](Cc1c[nH]c2ccccc12)NC(=O)[C@H](Cc1c[nH]c2ccccc12)NC(=O)[C@H](CCCNC(=N)N)NC(=O)[C@H](CCCNC(=N)N)NC(=O)[C@H](CCCNC(=N)N)NC(=O)[C@H](CCCNC(=N)N)NC(=O)[C@H](CCCNC(=N)N)NC(=O)[C@H](CCCNC(=N)N)NC(=O)[C@H](CCCNC(=N)N)NC(=O)[C@@H](N)CCCNC(=N)N)C(C)C)C(C)C)C(C)C)C(=O)O [LE-55] (H-RRRRRRRRWWWWVVVV-OH)
- MIC after 1-Hr AB incubation [8]: 16.0 ± 0 µM (≈ 38.5 µg/mL)
- MIC after 1-Hr NE digestion [8]: 3.0 ± 1.4 µM (≈ 7.23 µg/mL)
- MIC after 4-Hr AB incubation [8]: 6.0 ± 2.8 µM (≈ 14.5 µg/mL)
- MIC after 4-Hr NE digestion [8]: 3.0 ± 1.4 µM (≈ 7.23 µg/mL)
- toxicity (in words) [9]: nontoxic

Compound: colistin
- MIC [1]: 8.4 µM
- MIC [2, 14]: 0.5 µM
- MIC [3, 14]: 4.3 µM
- MIC [4, 14]: 0.7 µM
- MIC ([5]; average of strains SA703, SA722, SA729, MHB2, 18 h, 37 °C, A570 growth curves): 64.0 µM
- MIC [6]: 12.1 µM
- MIC G(−) average [7]: 5.2 ± 4.3 µM
- MIC [10, 14]: 32.0 µM
- MIC G(+) average [11]: 48.0 ± 23.0 µM

Compound: CC(C)[C@@H]1NC(=O)[C@H](Cc2c[nH]c3ccccc23)NC(=O)[C@H](Cc2c[nH]c3ccccc23)NC(=O)[C@H](Cc2c[nH]c3ccccc23)NC(=O)[C@H](Cc2c[nH]c3ccccc23)NC(=O)[C@H](CCCNC(=N)N)NC(=O)[C@H](CCCNC(=N)N)NC(=O)[C@H](CCCNC(=N)N)NC(=O)[C@H](CCCNC(=N)N)NC(=O)[C@H](CCCNC(=N)N)NC(=O)[C@H](CCCNC(=N)N)NC(=O)[C@H](C(C)C)NC1=O [CE-03] (cyclo(RRRRRRWWWWVV))
- MIC [1]: 7.1 µM (≈ 13.3 µg/mL)
- MIC ([2]; AB78, AB83, AB273, AB275, 18 h): 2.2 µM (≈ 4.14 µg/mL)
- MIC [3, 12]: 1.5 µM (≈ 2.82 µg/mL)
- MIC [4, 13]: 8.2 µM (≈ 15.4 µg/mL)
- MIC ([5]; SA703, SA722, SA729, 18 h): 2.3 µM (≈ 4.32 µg/mL)
- MIC [6]: 3.7 µM (≈ 6.96 µg/mL)
- MIC G(−) average [7]: 4.6 ± 1.3 µM (≈ 8.65 µg/mL)
- MIC ([10]; 18 h): 0.9 µM (≈ 1.69 µg/mL)
- MIC G(+) average [11]: 1.6 ± 0.7 µM (≈ 3.01 µg/mL)
- MIC after 1-Hr AB incubation [8]: 1.0 ± 0.0 µM (≈ 1.88 µg/mL)
- MIC after 1-Hr NE digestion [8]: 1.5 ± 0.7 µM (≈ 2.82 µg/mL)
- MIC after 4-Hr AB incubation [8]: 1.0 ± 0 µM (≈ 1.88 µg/mL)
- MIC after 4-Hr NE digestion [8]: 1.0 ± 0 µM (≈ 1.88 µg/mL)

Compound: NC[C@H]1O[C@H](O[C@H]2[C@H](O)[C@@H](O[C@H]3O[C@H](CO)[C@@H](O)[C@H](N)[C@H]3O)[C@H](N)C[C@@H]2N)[C@H](N)C[C@@H]1O [tobramycin]
- MIC ([1]; Pseudomonas): 32 µM (≈ 15 µg/mL)
- MIC ([2]; Acinetobacter baumannii, average of four strains, MHB2, 18 h, 37 °C, A570 growth curves): 32 µM (≈ 15 µg/mL)
- MIC ([3]; Escherichia coli, average of four strains, MHB2, 18 h, 37 °C, A570 growth curves): 28 µM (≈ 13.1 µg/mL)
- MIC ([4]; Klebsiella pneumoniae, average of four strains, MHB2, 18 h, 37 °C, A570 growth curves): 2.1 µM (≈ 0.982 µg/mL)
- MIC ([5]; Staphylococcus aureus, average of strains SA703, SA722, SA729, MHB2, 18 h, 37 °C, A570 growth curves): 13.1 µM (≈ 6.12 µg/mL)
- MIC ([6]; Enterobacter): 24.5 µM (≈ 11.5 µg/mL)
- MIC [7]: 23.7 ± 3.4 µM (≈ 11.1 µg/mL)
- MIC [10, 14]: 25 µM (≈ 11.7 µg/mL)
- MIC [11]: 19 ± 1 µM (≈ 8.88 µg/mL)

Compound: CC(=O)NC[C@H]1CN(c2ccc(N3CCOCC3)c(F)c2)C(=O)O1 [linezolid]
- MIC ([8]; control: peptide alone in 200 mmol/L ammonium bicarbonate pH 8.0, 1 h, read-out: MIC after 1-Hr AB incubation): > 16 µM
- MIC ([8]; control: peptide alone in 200 mmol/L ammonium bicarbonate pH 8.0, 4 h, read-out: MIC after 4-Hr AB incubation): > 16 µM
- MIC ([8]; human neutrophil elastase, molar ratio 1:50 with peptide, 200 mM ammonium bicarbonate pH 8.0, 1 h, read-out: MIC after 1-Hr NE digestion): > 16 µM
- MIC ([8]; human neutrophil elastase, molar ratio 1:50 with peptide, 200 mM ammonium bicarbonate pH 8.0, 4 h, read-out: MIC after 4-Hr NE digestion): > 16 µM
